Assay results as given in article PMC11571215, “Optimization of Antiproliferative Properties of Triimine Copper(II) Complexes” (Journal of Medicinal Chemistry, 2024).
Read-outs that look alike come from different tables or passages of the source.

Columns and labels:
[1] = tested on: HCT116 cells (colorectal carcinoma); parameters: method as in PMID 29688241; conditions: previously published complex, cited from earlier work
[2] = tested on: A2780 cells (ovarian carcinoma); parameters: method as in PMID 29688241; conditions: previously published complex, cited from earlier work
[3] = tested on: normal human primary dermal fibroblasts; parameters: method as in PMID 29688241; conditions: 48 h; previously published complex; cited from earlier work
[4] = tested on: HCT116 cells (colorectal carcinoma); assay: MTS cell viability assay, HCT116 2D; type: cell-based, human
Protocol: (§1) The antiproliferative effect of the Cu(II) complexes in tumor and healthy cell lines was assessed through the MTS assay, a colorimetric method that is widely used to evaluate cellular viability, specifically mitochondrial viability.[53],[54] Cellular viability was determined after 48 h exposure to a concentration range (0.1–50 μM) of Cu(II) complexes in three tumor cell lines. […] Additionally, the viability of healthy primary dermal fibroblasts was performed as a comparison of the complexes’ antiproliferative effects in normal cells.
(§2) Cellular viability assays were performed using HCT116, HCT116-DoxR, and A2780 cancer cell lines as well as normal human primary fibroblasts. Cells were seeded at a density of 0.75 × 10^5 cells/mL in 96-well plates and incubated at 37 °C with 5% (v/v) CO2 for 24 h. After this incubation period, the copper complexes were accurately weighed and immediately dissolved in 100% (v/v) dimethyl sulfoxide (DMSO). Subsequently, the complexes were diluted to the final concentration using a cell culture medium. The culture medium in each well was replaced with fresh medium containing varying concentrations of the complexes (ranging from 0.01 to 50 μM). Negative controls contained culture medium with 0.1% (v/v) DMSO, and positive controls contained 0.4 μM Dox.
(§3) After an additional 48 h of incubation under the same conditions, cellular viability was assessed using the CellTiter 96 Aqueous One Solution Cell Proliferation Assay kit (Promega, Madison, USA). Metabolically active cells contain mitochondrial dehydrogenases that can reduce 3-(4,5-dimethylthiazol-2-yl)-5-(3-carboxymethoxyphenyl)-2-(4-sulfophenyl)-2H-tetrazolium, the inner salt (MTS) to formazan. The absorbance of formazan, measured at 490 nm in a microplate reader (Tecan Infinite M200, Tecan, Männedorf, Switzerland), is directly proportional to the number of viable cells.[104]
(§4) The cell viability versus concentration graphics were analyzed using Prism 8 software (GraphPad) to determine the half-maximal inhibitory concentration (IC50) of each complex for the respective cell line. Additionally, the selective index (SI) for each complex was calculated by dividing the IC50 of human fibroblasts by the IC50 values of the tested cancer cell lines.

[5] = tested on: HCT116-DoxR cells (doxorubicin resistant colorectal carcinoma); assay: MTS cell viability assay, HCT116-DoxR 2D; type: cell-based, human; conditions: for IC50: 48 h of exposure
Protocol: as §1, §2, §3, §4

[6] = tested on: A2780 cells (ovarian carcinoma); assay: MTS cell viability assay, A2780; type: cell-based, human
Protocol: as §1, §2, §3, §4

[7] = tested on: normal human primary dermal fibroblasts; assay: MTS cell viability assay, normal fibroblasts; type: cell-based; conditions: 48 h of exposure
Protocol: as §1, §2
After an additional 48 h of incubation under the same conditions, cellular viability was assessed using the CellTiter 96 Aqueous One Solution Cell Proliferation Assay kit (Promega, Madison, USA). […] The absorbance of formazan, measured at 490 nm in a microplate reader (Tecan Infinite M200, Tecan, Männedorf, Switzerland), is directly proportional to the number of viable cells.[104]
as §4

[8] = tested on: HCT116-DoxR cells (doxorubicin resistant colorectal carcinoma); parameters: method as in PMID 37311060; conditions: previously determined; read-out: IC50 for the HCT116-DoxR cell line; cited from earlier work
HCT116-DoxR cells = assay: Autophagy induction (CYTO-ID green, flow cytometry); type: cell-based, human; conditions: 48 h; complexes at IC50, Dox 6 μM, Cis 5 μM, rapamycin 1500 nM
From the text: Furthermore, previous studies have shown that complexes containing terpyridine derivatives have the ability to trigger both apoptosis and autophagy cell death mechanisms in cancer cells simultaneously.[38] This convergence of death pathways may arise from an adaptive response of the heterogeneous tumor cell population.[38] In this context, understanding the mechanism by which cells lose viability in the presence of the two Cu(II) complexes with the simultaneous induction of apoptosis and autophagy becomes crucial. Autophagy is a highly conserved catabolic process crucial for maintaining cellular homeostasis but is also associated with type II programmed cell death.[75] It involves intracellular degradation through autophagolysosomes responsible for breaking down luminal content and enabling recycling of cellular components.[76],[77] The assessment of the complexes’ ability to induce autophagy was conducted using flow cytometry, employing the CYTO-ID green detection reagent. This probe emits green fluorescence, marking the autophagic vacuoles within the cell. Higher fluorescence indicates a greater proportion of autophagolysosomes.[78] Three positive controls were used: Dox, Cis, and rapamycin (1500 nM), whose concentration was previously optimized for the HCT116-DoxR cell line in the laboratory.[64] Rapamycin is known to induce autophagy through its mechanistic target, mTOR.
Cell death via autophagy was evaluated using the Autophagy Assay Kit (ab139484; Abcam, Cambridge, United Kingdom), according to the manufacturers’ instructions. HCT116-DoxR cells were seeded at a density of 1 × 10^5 cells/mL in 6-well plates for 24 h, under the same conditions described before. After this incubation period, the culture medium was replaced with a fresh medium containing the copper complexes under evaluation at their IC50 concentration. A 0.1% (v/v) DMSO solution was used as the negative (vehicle) control, and 6 μM Dox and 5 μM Cis were used as positive controls. The cells were incubated again for 48 h. Rapamycin (1500 nM) was also added as a positive control, and it was added 18 h before the end of the 48 h incubation. After this period, the supernatant was discarded, and each well was washed with PBS 1×. Subsequently, cells were detached using TrypLE Express and washed with phenol red-free DMEM medium containing 5% (v/v) FBS. Cells were incubated with Green Stain Solution in phenol red-free DMEM medium containing 5% (v/v) FBS for 30 min at RT. After this period, the samples were washed and then resuspended in Assay Buffer 1×. The samples were analyzed using an Attune Acoustic Focusing Flow Cytometer (Life Technologies, Carlsbad, USA), and the results were analyzed via the Attune Cytometric software.

[9] = 48 h of exposure, MTS, relative IC50, mean + SEM
[10] = free ligands, at least two independent assays, read-out: IC50 of ligands HCT116-DoxR

In the case of `COc1ccc(-c2cc(-c3ccccn3)nc(-c3ccccn3)c2)c2ccccc12.[Cl][Cu][Cl]` [Cu1c], the IC50 ([1]; 48 h) is listed as 400 ± 60 nM, the “SI HCT116” value ([1]; IC50 fibroblasts / IC50 HCT116) is listed as 82 and the IC50 ([2]; 48 h) is listed as 950 ± 50 nM. The “SI A2780” value ([2]; IC50 fibroblasts / IC50 A2780) was 34.5 and the IC50 [3] was 32780 ± 60 nM.
In the case of `COc1ccc2cc(-c3cc4[n+]5c(c3)-c3cccc[n+]3[Cu-3]5([Cl])([Cl])[n+]3ccccc3-4)ccc2c1` [Cu1d], the IC50 [4, 9] is reported as 360 ± 40 nM, the “SI HCT116” value ([4]; ratio IC50 fibroblasts / IC50 HCT116) is reported as 17.8 and the IC50 ([5]; MTS, relative IC50, mean + SEM, read-out: IC50 HCT116-DoxR (2D)) is reported as 310 ± 10 nM. The “SI HCT116-DoxR” value ([5]; ratio IC50 fibroblasts / IC50 HCT116-DoxR) was 20.7, the IC50 [6, 9] was 480 ± 80 nM and the “SI A2780” value ([6]; ratio IC50 fibroblasts / IC50 A2780) was 13.4. It also gave an IC50 [7] of 6420 ± 500 nM.
Work on `c1ccc(-c2cc(-c3cccc4ccccc34)cc(-c3ccccn3)n2)nc1` [L1a] yielded an IC50 [5, 10] of about 180 nM.
For `c1ccc(-c2cc(-c3ccc4ccccc4c3)cc(-c3ccccn3)n2)nc1` [L1b], the IC50 [5, 10] was 240 ± 400 nM.
In the case of `COc1ccc2cc(-c3cc(-c4ccccn4)nc(-c4ccccn4)c3)ccc2c1` [L1d], the IC50 [5, 10] is reported as 200 ± 50 nM.
Work on `c1ccc2c(-c3cc(-c4nccs4)nc(-c4nccs4)c3)cccc2c1` [L2a] yielded an IC50 [5, 10] of over 50000 nM.
Work on `c1ccc2cc(-c3cc(-c4nccs4)nc(-c4nccs4)c3)ccc2c1` [L2b] yielded an IC50 [5, 10] of over 50000 nM.
`COc1ccc(-c2cc(-c3nccs3)nc(-c3nccs3)c2)c2ccccc12` [L2c] showed an IC50 [5, 10] of about 11500 nM.
`COc1ccc2cc(-c3cc(-c4nccs4)nc(-c4nccs4)c3)ccc2c1` [L2d] gave an IC50 [5, 10] of about 14600 nM.
For `CC(C)(C)OO` [TBHP, Tert-butyl hydroperoxide], the IC50 [8] is listed as 42000 nM.
With `CO[C@H]1C[C@@H]2CC[C@@H](C)[C@@](O)(O2)C(=O)C(=O)N2CCCC[C@H]2C(=O)O[C@H]([C@H](C)C[C@@H]2CC[C@@H](O)[C@H](OC)C2)CC(=O)[C@H](C)/C=C(\C)[C@@H](O)[C@@H](OC)C(=O)[C@H](C)C[C@H](C)/C=C/C=C/C=C/1C` [rapamycin, Rapamycin] the “increase in autophagic vesicles compared to 0.1% DMSO control” value (HCT116-DoxR cells) was “increase in green fluorescence intensity”.
